From patent US6602987B1, “Azobenzene derivatives as labeling agents and intermediates thereof” (Yeda Research and Development Co., Ltd., priority 1998, dated 2003)

Key:
[1] = UV-Vis spectroscopic characteristics of free HABA and HABA-derivatives in buffer; format: physicochemical
Method: (§1) The degree of modification is calculated, after purification from side-products, on the basis of UV absorption at 356 nm in PBS, at 415 nm in basic environment, or at 504 nm after addition of excess of avidin in PBS.
(§2) Interaction of the HABAylated proteins with avidin or with anti-HABA antibodies is verified by following the characteristic shift of the absorption of the HABA chromophore. Table 4 depicts the spectroscopic characteristics in the spectra range of the HABA-derivatives as free molecules (not bound to proteins) upon interaction with avidin or specific affinity purified antibodies.

avidin = target: T1, avidin (Gallus gallus, UniProt P02701); assay: Spectral shift of the HABA chromophore upon interaction with avidin; format: binding
T1 construct: purchased STC Laboratories (Winnipeg, Canada)
T1 sequence (P02701 25-152): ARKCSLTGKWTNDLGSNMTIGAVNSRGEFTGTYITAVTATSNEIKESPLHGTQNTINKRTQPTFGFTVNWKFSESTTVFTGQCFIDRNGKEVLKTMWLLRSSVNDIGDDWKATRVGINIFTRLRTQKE
Method: as §1, §2

[2] = system: affinity purified anti-HABA antibodies; assay: Spectral shift of the HABA chromophore upon interaction with affinity purified anti-HABA antibodies; format: binding, rabbit
[3] = +affinity purified anti-HABA in PBS, (1:1)

SMILES | ε[cm^−1M^−1] at λmax ([1]; 0.1 M AcOH) | λmax (nm) ([1]; 0.1 M AcOH) | ε[cm^−1M^−1] at λmax ([1]; 0.1 M NaOH) | λmax (nm) ([1]; 0.1 M NaOH) | ε[cm^−1M^−1] at λmax ([1]; PBS) | λmax (nm) ([1]; PBS) | ε280 nm ([1]; at 280 nm) | ε[cm^−1M^−1] at λmax (avidin; PBS/AVIDIN) | λmax (nm) (avidin; PBS/AVIDIN) | ε[cm^−1M^−1] at λmax ([2]; PBS/anti-HABA) | λmax (nm) ([2]; PBS/anti-HABA) | ε[cm^−1M^−1] (avidin; +Avidin in PBS, (20:1)) | λmax (nm) (avidin; +Avidin in PBS, (20:1)) | ε500 nm of bound HABA (avidin; at 500 nm, HABA bound to nonlabeled avidin or anti-HABA antibodies) | ε[cm^−1M^−1] [2, 3] | λmax (nm) [2, 3] [nm]
O=C(CCc1cc(N=Nc2ccccc2C(=O)O)ccc1O)NCCCCCCNC(=O)ON1C(=O)CCC1=O [Compound 17, 3′-(6-(succinimidyloxycarbonylamino)hexylaminocarbonylethyl)4′-hydroxy-azo-benzene-2-carboxylic acid] | 12,200 cm^−1M^−1 | 356 | – | – | – | – | – | – | – | – | – | – | – | – | – | –
NCCCCCCNC(=O)CCc1cc(N=Nc2ccccc2C(=O)O)ccc1O [Compound 16, 3′-(6-aminohexylaminocarbonylethyl)-4′-hydroxy-azobenzene-2-carboxylic acid] | 12,500 cm^−1M^−1 | 356 | 15,000 cm^−1M^−1 | 420 | 12,900 cm^−1M^−1 | 356 | 3,300 | 30,000 cm^−1M^−1 | 504 | 50,000 cm^−1M^−1 | 482 | – | – | – | – | –
O=C(O)c1ccccc1/N=N/c1ccc(O)cc1 [Compound 0, 4′-hydroxyazobenzene-2-carboxylic acid, reference compound] | – | – | – | – | 20,500 cm^−1M^−1 | 350 | – | – | – | – | – | 35,500 cm^−1M^−1 | 500 | about 30,000 | 50,000 cm^−1M^−1 | 482
